Test results published in patent US7232805B2, “Cobalamin conjugates for anti-tumor therapy” (Inflabloc Pharmaceuticals, Inc., priority 2003, dated 2007).

How the values were obtained:
[1] = tested on: MX-1 human breast carcinoma xenograft; test: tumor growth delay, MX-1 xenograft, single-cycle dosing (Example 3); details: 3 mg/kg/day x 5 days intravenous
Description: Test articles were administered on the day of pair matching, Day 1.
The upper limit of acceptability is 20% weight loss.

[2] = tested on: MX-1 human breast carcinoma xenograft; test: tumor growth delay, MX-1 xenograft, two-cycle dosing (Example 11); details: 2-cycle
Description: The following procedure was used to investigate the tumor growth delay effects of the conjugate, particularly for the treatment of MX-1 human breast carcinoma xenograft in athymic mice using a two-cycle dosing regimen. Female nude Harlan mice are implanted subcutaneously with 1 mm^3 MX 1 solid tumor fragments in the flank. During the pre-dose phase of implantation and growth, tumors are initially monitored twice weekly, and then daily as the neoplasms approach the desired size of 80-120 mg. When the majority of tumors reached the targeted weight range (80-120 mg), mice are pair-matched into 5 treatment groups of 10 mice each. For purposes of this illustrationon the effect of 2-cycles of treatment, data from 3 groups are shown: no treatment, 3 mg/kg/day (days 1-5, 21-25) intravenous Doxorubicin and 24 mg/kg/day (days 1-5, 21-25) intravenous bioconjugate. Test article administration began on this day, referred to as Day 1. The tumor growth delay endpoint is reached when the tumor on the mouse reaches 1.5 gm weight estimated by the formula: Tumor weight (mg)=w^2×l/2×1 mg/mm^3, where w=width (mm) and l=length (mm) of the tumor. The median time to endpoint is calculated for each treatment group.

[3] = systemic toxicity / MTD of free doxorubicin versus conjugate on a molar basis (separate study); type: in vivo, mice

Question: For `COc1cccc2c1C(=O)c1c(O)c3c(c(O)c1C2=O)C[C@@](O)(C(=O)CO)C[C@@H]3O[C@H]1C[C@H](N)[C@H](O)[C@H](C)O1` [Doxorubicin, doxorubicin, reference compound], which “median delay in tumor growth (median time to endpoint, tumor 1.5 gm)” value [1] is on record?
Answer: 39.5 days

Question: And the “treatment or nontreatment related deaths” value [1]?
Answer: no other treatment or nontreatment related deaths

Question: And the “long-term, tumor-free survivors” value ([1]; 10 mice)?
Answer: no long-term, tumor-free survivors

Question: What about the “partial or complete tumor regressions” value ([1]; 10 mice) of the same molecule?
Answer: no partial or complete tumor regressions

Question: And the “time to endpoint longer than control mice” value ([2]; 3 mg/kg/day (days 1-5, 21-25) intravenous)?
Answer: at least 44 days

Question: What about the “treatment or nontreatment related deaths” value ([2]; 3 mg/kg/day intravenous) of the same molecule?
Answer: no treatment or nontreatment related deaths

Question: And the “long-term, tumor-free survivors” value ([2]; 3 mg/kg/day intravenous, at 71 days)?
Answer: significant percentage

Question: What about the “lethality at the same high molar dose” value ([3]; free doxorubicin at the same high molar dose as the conjugate) of the same molecule?
Answer: mice were killed by the free doxorubicin

Question: What about the “MTD lower than for the conjugate on a molar basis” value ([3]; separate study) of the same molecule?
Answer: at least 2.3 times
